The values below come from patent US20260137687A1, “GTPase INHIBITORS AND USES THEREOF” (The Regents of The University of California, priority 2022, published 2026).

For series [1] the following is noted: permeability controls; cited from earlier work.
Series [2] has as its target T1, K-Ras(G12R)·GDP (Homo sapiens, UniProt P01116, G12R).
T1 construct: human K-Ras (G12R, aa 1-169); 6xHis tag + TEV cleavage site (N, cleaved yes); made in house; host or cells: E. coli BL21(DE3)
Nature of the series: Intact protein mass spectrometry, covalent modification. The class given is binding. The conditions noted are these: 100 μM compound, pH 7.5, 23° C.; adducts +656 Da and +638 Da. On the procedure: Purified K-Ras variants (4 μM final) were incubated with compounds at 50 or 100 μM (1% v/v DMSO final) in 20 mM HEPES pH 7.5, 150 mM NaCl, 1 mM MgCl2 in a total volume of 150 μL. After the noted time, the samples were analyzed by intact protein LC/MS using a Waters Xevo G2-XS system equipped with an Acquity UPLC BEH C4 1.7 μm column. The mobile phase was a linear gradient of 5-95% acetonitrile/water+0.05% formic acid. The spectra were processed using QuantLynx, giving the ion counts observed for the most abundant species. For assays conducted under an alternate pH, the HEPES buffer was replaced with one of the following buffers (maintaining 150 mM NaCl and 1 mM MgCl2): 20 mM MES pH 6 or 20 mM Tris pH 9.

The target in series [3] is T2, K-Ras(G12R) Cyslight bound by GDP (Homo sapiens, UniProt P01116, C118S/C51S/C80L/G12R).
T2 construct: human K-Ras G12R Cyslight (G12R/C51S/C80L/C118S, aa 1-169); 6xHis tag + TEV cleavage site (N, cleaved yes); made in house; host or cells: E. coli BL21(DE3)
Put plainly: LC-MS analysis of adduct formation for crystallization. The class given is binding. The conditions noted are these: 100 μM protein, 200 μM compound, 23° C. As for the experimental part: K-Ras(G12R) Cyslight ([…]/C51S/C80L/C118S) bound by GDP purified by size exclusion chromatography was diluted to 100 μM in Reaction Buffer (20 mM HEPES 7.5, 150 mM NaCl, 1 mM MgCl2). […] The reaction mixture was purified by size exclusion chromatography (Superdex75, 20 mM HEPES 7.5, 150 mM NaCl, 1 mM MgCl2) and concentrated to 20 mg/mL. For crystallization, 0.1 μL of the protein was mixed with 0.1 μL well buffer containing 0.1 M MES pH 6.5, 30% w/v PEG 4K. Crystals were grown at 20° C. in a 96-well plate using the hanging-drop vapor diffusion method. Maximal crystal growth was achieved after 7 days. The crystals were transferred to a cryoprotectant solution (0.1 M MES pH 6.5, 30% w/v PEG 4K, 15% glycerol) and flash-frozen in liquid nitrogen.

In series [4] the test system is BaF3/G12R cells (±IL-3), TCC-Pan-2 cells, and A375 cells. Put plainly: Cellular activity (phospho-ERK immunoblot, growth inhibition). Type of series: cell-based. The conditions noted are these: at concentrations below 100 μM. As for the experimental part:
When indicated, cells were treated with drugs at 40-60% confluency at a final DMSO concentration of 1%. At the end of treatment period, cells were placed on ice. Unless otherwise indicated, adherent cells were washed once with ice-cold PBS (1 mL), scraped with a spatula, and pelleted by centrifugation (500×g, 5 min). Suspension cells were pelleted by centrifugation (500×g, 5 min), washed with 1 mL ice-cold PBS, and pelleted again. Cells were lysed in RIPA buffer supplemented with protease and phosphatase inhibitors (cOmplete and phosSTOP, Roche) on ice for 10 min. Lysates were clarified by high-speed centrifugation (19,000×g, 10 min). Concentrations of lysates were determined with protein BCA assay (Thermo Fisher) and adjusted to 2 mg/mL with additional RIPA buffer (or Co-IP Lysis Buffer). Samples were mixed with 5×SDS Loading Dye and heated at 95° C. for 5 min.
Cells were seeded into 96-well white flat bottom plates (1,000 cells/well) (Corning) and incubated overnight. Cells were treated with the indicated compounds in a nine-point threefold dilution series (100 μL final volume) and incubated for 72 h. Cell viability was assessed using a commercial CellTiter-Glo (CTG) luminescence-based assay (Promega). […] Plates were placed on an orbital shaker for 30 min before recording luminescence using a Spark 20M (Tecan) plate reader.
(In general: In western blotting, separated proteins are transferred to a membrane and probed.)

For `O=C(N[C@H](CO)[C@H](O)c1ccc([N+](=O)[O-])cc1)C(Cl)Cl` [Chloramphenicol], the “permeability class of PAMPA control” value in series [1] is “high”. As for `O=C(O)Cc1ccccc1Nc1c(Cl)cccc1Cl` [Diclofenac], in series [1], the “permeability class of PAMPA control” value is “medium”. With `CC(=O)CC(=O)N1[C@@H]2CC[C@H]1CN(c1nc(OCC34CCCN3CCC4)nc3c(F)c(-c4cccc5cccc(Cl)c45)ncc13)C2` [compound 2, 1-((1R,5S)-3-(7-(8-chloronaphthalen-1-yl)-8-fluoro-2-((tetrahydro-1H-pyrrolizin-7a(5H)-yl)methoxy)pyrido[4,3-d]pyrimidin-4-yl)-3,8-diazabicyclo[3.2.1]octan-8-yl)butane-1,3-dione], in series [2], the “covalent adduct formation with recombinant K-Ras(G12R)·GDP” value was “did not form any detectable covalent adduct”. `CC(=O)C(O)(O)C(=O)N1CCN(c2nc(OCC34CCCN3CCC4)nc3c(F)c(-c4cccc5cccc(Cl)c45)ncc23)C[C@@H]1CC#N` [compound 4, (S)-2-(4-(7-(8-chloronaphthalen-1-yl)-8-fluoro-2-((tetrahydro-1H-pyrrolizin-7a(5H)-yl)methoxy)pyrido[4,3-d]pyrimidin-4-yl)-1-(2,2-dihydroxy-3-oxobutanoyl)piperazin-2-yl)acetonitrile]: the “conversion of K-Ras(G12R) Cyslight·GDP to covalent adduct” value in series [3] is listed as “full conversion to a single covalent adduct”. Also, the cellular activity entry in series [4] is listed as “did not show cellular activity”.
